According to PubChem BioAssay (NCI):
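48-hour exposure; five concentrations; linearly interpolated endpoints. Here, GI50 denotes the concentration required for 50% inhibition of growth. Definition used: TGI = concentration required for complete inhibition of growth.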

Experiments:
Assay in all cases: DTP human tumour cell line panel, 48 h
KM12 colon = test system: KM12 colon
IGROV1 ovarian = test system: IGROV1 ovarian
OVCAR-4 ovarian = test system: OVCAR-4 ovarian
SF-268 CNS = test system: SF-268 CNS
MCF7 breast = test system: MCF7 breast
TK-10 renal = test system: TK-10 renal
RXF 393 renal = test system: RXF 393 renal
HCT-15 colon = test system: HCT-15 colon
PC-3 prostate = test system: PC-3 prostate
A498 renal = test system: A498 renal
HT29 colon = test system: HT29 colon
OVCAR-5 ovarian = test system: OVCAR-5 ovarian
NCI-H522 lung = test system: NCI-H522 lung
MALME-3M melanoma = test system: MALME-3M melanoma
M14 melanoma = test system: M14 melanoma
SK-MEL-2 melanoma = test system: SK-MEL-2 melanoma
BT-549 breast = test system: BT-549 breast
HL-60(TB) leukemia = test system: HL-60(TB) leukemia
HOP-92 NSCLC = test system: HOP-92 NSCLC
MOLT-4 leukemia = test system: MOLT-4 leukemia
UACC-257 melanoma = test system: UACC-257 melanoma
T-47D breast = test system: T-47D breast
HCC-2998 colon = test system: HCC-2998 colon
SK-OV-3 ovarian = test system: SK-OV-3 ovarian
CCRF-CEM leukemia = test system: CCRF-CEM leukemia
HOP-62 NSCLC = test system: HOP-62 NSCLC
UO-31 renal = test system: UO-31 renal
SF-539 CNS = test system: SF-539 CNS
NCI/ADR-RES ovarian = test system: NCI/ADR-RES ovarian
DU-145 prostate = test system: DU-145 prostate

COc1ccc([C@H]2[C@H](O)C(=O)N2c2cc(OC)c(OC)c(OC)c2)cc1F
GI50 (KM12 colon): < 0.01 µM | TGI (KM12 colon): > 100 µM | GI50 (IGROV1 ovarian): < 0.01 µM | TGI (IGROV1 ovarian): > 100 µM | GI50 (OVCAR-4 ovarian): 0.546 µM | TGI (OVCAR-4 ovarian): > 100 µM | GI50 (SF-268 CNS): < 0.01 µM | TGI (SF-268 CNS): > 100 µM | GI50 (MCF7 breast): < 0.01 µM | TGI (MCF7 breast): > 100 µM | GI50 (TK-10 renal): > 100 µM | TGI (TK-10 renal): > 100 µM | GI50 (RXF 393 renal): < 0.01 µM | GI50 (HCT-15 colon): < 0.01 µM | TGI (HCT-15 colon): > 100 µM | GI50 (PC-3 prostate): < 0.01 µM | TGI (PC-3 prostate): > 100 µM | GI50 (A498 renal): > 100 µM | TGI (A498 renal): > 100 µM | GI50 (HT29 colon): < 0.01 µM | TGI (HT29 colon): < 0.01 µM | GI50 (OVCAR-5 ovarian): < 0.01 µM | TGI (OVCAR-5 ovarian): > 100 µM | GI50 (NCI-H522 lung): < 0.01 µM | TGI (NCI-H522 lung): < 0.01 µM | GI50 (MALME-3M melanoma): < 0.01 µM | TGI (MALME-3M melanoma): > 100 µM | GI50 (M14 melanoma): < 0.01 µM | TGI (M14 melanoma): > 100 µM | GI50 (SK-MEL-2 melanoma): < 0.01 µM | TGI (SK-MEL-2 melanoma): > 94.8 µM | GI50 (BT-549 breast): < 0.01 µM | GI50 (HL-60(TB) leukemia): < 0.01 µM | TGI (HOP-92 NSCLC): > 100 µM | GI50 (MOLT-4 leukemia): < 0.01 µM | TGI (MOLT-4 leukemia): > 100 µM | TGI (UACC-257 melanoma): > 100 µM | GI50 (T-47D breast): > 100 µM | TGI (T-47D breast): > 100 µM | GI50 (HCC-2998 colon): < 0.01 µM | GI50 (SK-OV-3 ovarian): < 0.01 µM | TGI (SK-OV-3 ovarian): > 100 µM | GI50 (CCRF-CEM leukemia): < 0.01 µM | TGI (CCRF-CEM leukemia): > 100 µM | GI50 (HOP-62 NSCLC): < 0.01 µM | TGI (HOP-62 NSCLC): > 100 µM | GI50 (UO-31 renal): < 0.01 µM | TGI (UO-31 renal): > 100 µM | GI50 (SF-539 CNS): < 0.01 µM | TGI (SF-539 CNS): < 0.01 µM | GI50 (NCI/ADR-RES ovarian): < 0.01 µM | GI50 (DU-145 prostate): < 0.01 µM | TGI (DU-145 prostate): > 100 µM
